Measurements published in patent US11413278B2, “Compounds and methods for promoting stress resistance” (priority 2015, dated 2022).
Like-named read-outs stand apart in the source and are kept apart here.

How the values were obtained:
[1] = system: human dermal fibroblast (HDF) primary cells; assay: H2O2-resistance in primary human dermal fibroblasts; format: cell-based; conditions: YES/NO
NRF2 [2] = assay: qPCR analysis of NRF2-regulated genes; format: cell-based, human; conditions: Homo sapiens, 24 h, Assay 12(o), at 10 uM, qPCR
Description: (§1) For qPCR analysis, WI-38 cells were treated with small molecules (at 10 μM) (biological quadruplicates) for 24 hrs and processed for RNA isolation and reverse transcription (RT) with the Cells-to-Ct Kit (Life Technologies), following manufacturer's instructions. RT products were diluted with H2O and used for qPCR analysis on an ABI 7300 system (Life Technologies) (technical triplicates). Relative expression levels of target genes were normalized to the genes B2M, PPIA and GAPDH. To knock down the expression of FOXO3 or NRF2, WI-38 cells were transfected, using the RNAiMAX reagents (Life Technologies), with siRNA oligos (at 10 nM final concentration, 10 ml culture medium) for FOXO3 (Life Technologies) or NRF2 (Integrated DNA Technologies) on 10-cm petri dishes for 36 hrs, and then detached and aliquoted onto 96-well (for qPCR analysis) or 384-well plates (for H2O2-stress treatment). ˜24 hrs later, small molecules were introduced and incubated with cells for 24 hrs. Cells were then either processed with the Cells-to-Ct Kit to prepare RT products for qPCR analysis or subjected to H2O2 (700 μM) for 3 hrs and assayed for viability. The knockdown efficiency of FOXO3 or NRF2 was checked at 36 hrs post-transfection and at the end as well.
(§2) For qPCR analysis, WI-38 cells were treated with small molecules (at 10 μM) (biological quadruplicate) for 24 hrs and processed for RNA isolation and reverse transcription (RT) with the Cells-to-Ct Kit (Life Technologies), following manufacturer's instructions. RT products were diluted with H2O and used for qPCR analysis on a LightCycler 480 system (Roche) (technical triplicates). Relative expression levels of target genes were normalized to the genes B2M, PPIA and GAPDH. To knock down the expression of FOXO3 or NRF2, WI-38 cells were transfected with siRNA oligos (at 10 nM final concentration) for FOXO3 (Life Technologies) or NRF2 on 10-cm petri dish for 36 hrs, and then detached and aliquoted onto 96-well plates. ˜24 hrs later, small molecules were introduced and incubated with cells for 24 hrs. Cells were then processed with the Cells-to-Ct Kit to prepare RT products for qPCR analysis. The knockdown efficiency of FOXO3 or NRF2 was checked at 36 hrs post-transfection and at the end as well.
NRF2/SKN-1, the oxidative stress and xenobiotic phase 2 detoxification protein, can extend animal lifespan (Sykiotis and Bohmann, 2008; Tullet et al., 2008). Applicants analyzed these small molecules for their ability to increase the expression of NRF2-regulated genes, including HMOX1 (heme oxygenase (decycling) 1; anti-oxidant), NQO1 (NAD(P)H dehydrogenase, quinone 1; phase 2 detoxification enzyme), GCLC (glutamate-cysteine ligase, catalytic) and GSTM1 (glutathionine S transferase) (Hur and Gray, 2011; Suzuki et al., 2013).

C. elegans = C. elegans lifespan assays (liquid and plate); format: in vivo, Caenorhabditis elegans; conditions: Caenorhabditis elegans, at 66 uM
WI-38 cells [3] = conditions: Assay 8(k); without H2O2, at 10 uM
Description: WI-38 cells were seeded on 384-well plates for 24 hrs and then incubated with small molecules for 24 hrs. […] Images were collected on an INCell Analyzer 2000 (GE) and analyzed with the Developer software.

WI-38 cells [4] = conditions: for EC50: read-out: Est. ED50; for Assay 1: H2O2-resistant: YES/NO, if NO, possibly due to repeated freezing/thawing of stocks
WI-38 cells [5] = assay: CdCl2 (cadmium) resistance assay; format: cell-based, human; conditions: YES/NO; for Assay 2: Cadmium-resistant: * indicates partial
Description: (§3) For many stress conditions tested previously, one significant correlation to longevity is the cellular resistance to H2O2 or CdCl2. Applicants then tested these small molecules, at five different final concentrations (0.25 μM to 20 μM), for cadmium and MMS resistance in WI-38 cells.
(§4) The setups on 384-well plates and incubation times were the same as for H2O2 until the time of incubation with the stressors, which was 12 hours for both cadmium and MMS assays. Applicants tested several conditions, including conditions used to assay fibroblasts from long-lived animals (Salmon et al., 2005). These conditions produced better results with the positive controls (KEAP1 and AKT1 siRNAs) in the MMS assay. Thus, for MMS, the cells were shifted from growth media—OptiMEM+10% FBS, to DMEM (Gibco)+2% BSA (no serum) just before adding small molecules, which occurred 24 hours before MMS addition.
(§5) Isolated small molecules were tested for MMS and cadmium resistance twice in two independent assays. Each small molecule was analyzed at five different concentrations (0.25 μM to 20 μM final concentration), with technical triplicates for each dose. Data were analyzed using a global variance t-test.

WI-38 cells [6] = assay: MMS resistance assay; format: cell-based, human; conditions: YES/NO; for Assay 3: MMS-resistant: * indicates partial; for Assay 5: Triple resistant: H2O2, cadmium and MMS
Description: as §3, §4, §5

NRF2 [7] = assay: in vitro; format: cell-based, human; conditions: 10 uM; YES/NO
Description: as §1, §2
Of these, O15 and O20 consistently (in 3 of 3 experiments) required NRF2 to promote H2O2-resistance, and their resistance capacities were reduced by ˜90% on average upon NRF2 knockdown under conditions tested.

FOXO3 = assay: qPCR analysis of FOXO3-regulated genes; format: cell-based, human; conditions: Homo sapiens, 24 h, Assay 10(m), at 10 uM, qPCR
Description: as §1, §2
Many perturbations that increase lifespan and stress resistance in animals do so in a FOXO-dependent fashion (Kenyon, 2010c). Humans have several FOXO genes, but FOXO3, which promotes stress resistance in mammalian cell culture (Kops et al., 2002; Nemoto and Finkel, 2002; Tran et al., 2003), is the one that has been linked to exceptional longevity in humans (Anselmi et al., 2009; Flachsbart et al., 2009; Li et al., 2009; Pawlikowska et al., 2009; Soerensen et al., 2010; Willcox et al., 2008). FOXO1, in contrast, appears to be responsible for some symptoms of diabetes in mouse models (Cheng and White, 2011). For this reason, applicants have focused on analyzing potential ability of our small molecules to activate FOXO3. […] Another 4 molecules (Gr-7A, Gr-7C, O12 and O23) could induce robust expression (greater than 1.5-fold) of at least 2 FOXO3 target genes.

mTOR = mTOR inhibition (RPS6 phosphorylation status), In-Cell Western; format: cell-based, human
Description: In-Cell Western assays were performed, following a standard immuno-staining protocol. Briefly, WI-38 cells were treated with small molecules for 24 hrs, and then processed and incubated with primary antibody cocktail (Cell Signaling, mouse anti-RPS, 1:25; rabbit-anti-pRPS6-(Ser-235/236), 1:100) overnight at 4° C. Next day, samples were processed and incubated with fluorophore-conjugated secondary antibodies (Cell Signaling, DyLight 680-goat anti-mouse, 1:500; DyLight 800-goat anti-rabbit, 1:1,000). Images were collected on an Odyssey Imager (LI-COR) and analyzed with the Image Studio Lite software (version 5.0.21).
Mammalian target of rapamycin (mTOR) is a crucial regulator of cell growth and metabolism and has been implicated in aging and many diseases, including cancer, diabetes and neurological diseases (Dazert and Hall, 2011; Zoncu et al., 2011). […] In addition, the anti-diabetes drug metformin (Kalender et al., 2010), as well as other AMPK activators such as 2-deoxy-D-glucose (Inoki et al., 2003) and AICAR (Shaw et al., 2004), could inhibit mTORC1. Applicants examined the effects of our molecules (at three doses, 5 μM, 10 μM and 20 μM) on the phosphorylation status of ribosomal protein S6 (RPS6), a readout of mTOR activity, to ask whether they could inhibit mTOR.
In-Cell Western assays were performed, following the same procedures to analyze DNA-damage markers. WI-38 cells were incubated with small molecules for 24 hrs, and then processed and incubated with primary antibody cocktail (mouse anti-RPS, 1:25; rabbit-anti-pRPS6, 1:100) overnight at 4° C. Next day, samples were processed and incubated with fluorophore-conjugated secondary antibodies (goat anti-mouse, 1:500; goat anti-rabbit, 1:1,000) in antibody dilution buffer. Images were collected on an Odyssey Imager (LI-COR) and analyzed with the Image Studio Lite software.

[8] = read-out: Induction of NRF2-regulated genes: HMOX1 normalized fold-change
[9] = read-out: Induction of NRF2-regulated genes: NQO1 normalized fold-change
[10] = Assay 2(z), 1.0 × 10^9 bacteria/ml, wild type + FuDR (2012 July), read-out: Lifespan assay in liquid
[11] = Assay 3(aa), 2.5 × 10^9 bacteria/ml, wild type + FuDR, read-out: Lifespan assay in liquid
[12] = Assay 4(ab), 2.0 × 10^10 bacteria/ml, CF512 worms, no FuDR, read-out: Lifespan assay on plates
[13] = dose response 0.6-20 μM, H2O2-resistance
[14] = read-out: Induction of FOXO3-regulated genes: SOD2 normalized fold-change

Structure (SMILES)	Assay 6: H2O2-resistant, at 10 uM, human dermal fibroblast (HDF) primary cells [1]	fold induction at 10 µM (NRF2 [2]; [8])	fold induction at 10 µM (NRF2 [2]; [9])	ILS at 66 µM (C. elegans; [10]) [%]	ILS at 66 µM (C. elegans; [11]) [%]	ILS at 66 µM (C. elegans; [12]) [%]	PI cell-death imaging without H2O2 (indicating potential toxicity) (WI-38 cells [3])	EC50 (WI-38 cells [4]; [13]) [µM]	Assay 4: H2O2- & Cd-resistant (WI-38 cells [5])	Assay 2: Cadmium-resistant (WI-38 cells [5])	Assay 3: MMS-resistant (WI-38 cells [6])	Assay 5: Triple resistant (WI-38 cells [6])	Assay 1: H2O2-resistant (WI-38 cells [4])	fold induction at 10 µM (FOXO3; [14])	other results
Cc1ccc(S(=O)(=O)/C(C#N)=C/c2c(Oc3ccc(Cl)c(C)c3)nc3ccccn3c2=O)cc1 [Gr-5C]	YES	1.67	1.49	32.6	1.6	-6.9	YES	15.7	–	–	–	–	–	–	–
Oc1nc2ccccc2n2cccc12 [O4]	YES	–	–	–	–	–	–	–	YES	YES	YES	YES	YES	–	Assay 17: NRF2-dependency for H2O2-resistance (NRF2 [7]): YES; EC50 (WI-38 cells [4]): 11.2 µM
CO/C(O)=C1\C(C)=NC2=C(C(=O)CC(c3cccs3)C2)C1c1ccc(F)c(F)c1 (stereo not drawn) [O5]	YES	2.15	–	48.9	18.9	46.2	YES	20	YES	YES	YES	YES	YES	0.77	fold induction at 10 µM (FOXO3; read-out: Induction of FOXO3-regulated genes: GADD45A normalized fold-change): 0.45; ILS at 66 µM (C. elegans; Assay 5(ac), 1.0 × 10^11 bacteria/ml, CF512 worms, no FuDR, read-out: Lifespan assay on plates): 46.3%; ILS at 66 µM (C. elegans; Assay 6(ad), 2.0 × 10^10 bacteria/ml, CF512 worms, no FuDR, read-out: Lifespan assay on plates): 10.2%; ILS at 66 µM (C. elegans; Assay 7(ae), 1.0 × 10^11 bacteria/ml, CF512 worms, no FuDR, read-out: Lifespan assay on plates): 32%
Oc1nc(-c2ccccn2)nc2c1Cc1cc(F)ccc1O2 [O24]	YES	9.55	1.48	13	2.3	–	–	7.5	YES	YES	YES	YES	YES	1.2	fold induction at 10 µM (FOXO3; read-out: Induction of FOXO3-regulated genes: SESN1 normalized fold-change): 1.93; fold induction at 10 µM (FOXO3; read-out: Induction of FOXO3-regulated genes: TXNIP normalized fold-change): 0.61; fold induction at 10 µM (NRF2 [2]; read-out: Induction of NRF2-regulated genes: GCLC normalized fold-change): 0.7; fold induction at 10 µM (NRF2 [2]; read-out: Induction of NRF2-regulated genes: GSTM1 normalized fold-change): 1.24
CO[C@H]1C[C@@H]2CC[C@@H](C)[C@@](O)(O2)C(=O)C(=O)N2CCCC[C@H]2C(=O)O[C@H]([C@H](C)C[C@@H]2CC[C@@H](O)[C@H](OC)C2)CC(=O)[C@H](C)/C=C(\C)[C@@H](O)[C@@H](OC)C(=O)[C@H](C)C[C@H](C)/C=C/C=C/C=C/1C [rapamycin, reference compound]	–	–	–	–	–	–	–	–	–	–	–	–	–	–	Reduction of ratio of pRPS6/RPS6 by rapamycin (mTOR): ≥ 90%; Reduction of phosphorylated form of RPS6 by rapamycin (normalized) (mTOR; control): 95%
